Structures are written as SMILES.

The test relates to green peach aphid (Myzus persicae). The test is described as follows: Insecticidal effect on green peach aphid (Test Example 7). Conditions: 144 h, stems and leaves of Chinese cabbage sprayed, parasites counted six days after spraying, read-out: insecticidal effect (control efficacy). Type of test: in vivo. From the text: Insecticidal Effect on Green Peach Aphid (Myzus persicae)
A Chinese cabbage plant was planted in each of plastic pots with a diameter of 8 cm and a height of 8 cm, and green peach aphids were propagated on the plant. The number of parasites of each pot was counted.
Then, the stems and leaves were sufficiently sprayed with the test solution. After air-drying, the pots were allowed to stand in a greenhouse.
Control efficacy (%)=100[(T×Ca)/(Ta×C)]×100
Ta: number of parasites before spraying in treated group,
T : number of parasites after spraying in treated group,
Ca: number of parasites before spraying in untreated group,
[…]: number of parasites after spraying in untreated group.
Regarding `Cc1nn(C)c(Cl)c1NC(=O)Cc1ccc(-c2ccc(OC(F)(F)F)cc2)cc1` [Compound B-23, 5-chloro-4-(4-(4-trifluoromethoxyphenyl)phenylacetylamino)-1,3-dimethylpyrazole], the pest or weed control at 500 ppm was found to be 100%.
Then `Cc1nn(C)c(Cl)c1NC(=O)Cc1ccc2oc(CC(C)(C)C)nc2c1` [Compound C-1, 5-chloro-4-(2-(2,2-dimethylpropyl)benzoxazole-5-ylacetylamino)-1,3-dimethylpyrazole], with 100%; and `CCn1ncc(NC(=O)Cc2ccc(Oc3ccc(C(F)(F)F)cn3)c(OC)c2)c1Cl` [Compound D-33, 5-chloro-4-(3-methoxy-4-(5-trifluoromethylpyridine-2-yloxy)phenylacetylamino)-1-ethylpyrazole], with 100%.
In the case of `COc1cc(CC(=O)Nc2cnn(CCCl)c2Cl)ccc1Oc1ccc(C(F)(F)F)cn1` [Compound D-71, 5-chloro-4-(3-methoxy-4-(5-trifluoromethylpyridine-2-yloxy)phenylacetylamino)-1-(2-chloroethyl) pyrazole] it was 100%; in that of `CCn1ncc(NC(=O)Cc2ccc(Oc3ccc(C(F)(F)F)nn3)c(OC)c2)c1Cl` [Compound D-78, 5-chloro-4-(3-methoxy-4-(6-trifluoromethylpyridazine-3-yloxy)phenylacetylamino)-1-ethylpyrazole], 100%; in that of `CCn1ncc(NC(=O)Cc2ccc(Oc3ccc(C(F)(F)F)cn3)c(OC)c2)c1Br` [Compound D-79, 5-bromo-4-(3-methoxy-4-(5-trifluoromethylpyridine-2-yloxy)phenylacetylamino)-1-ethylpyrazole], 100%.
For the molecule `CCn1ncc(NC(=O)Cc2ccc(Oc3nc(C(F)(F)F)cs3)c(OC)c2)c1Cl` [Compound D-94, 5-chloro-4-(3-methoxy-4-(4-trifluoromethylthiazole-2-yloxy)phenylacetylamino)-1-ethylpyrazole], the pest or weed control at 500 ppm was determined as 100%.
